Assay results as given in patent US5494932A, “Sulfonic stilbene derivatives in the treatment of viral disease” (Merrell Dow Pharmaceuticals Inc., priority 1991, dated 1996).
Entries after “also recorded” stand apart in the source; their conditions may differ. Where two headings read alike, the source gives them in different places.

Legend:
[1] = tested on: virus-induced cell fusion (gp120-CD4 dependent); experiment: Cell fusion after pretreatment of uninfected C8166 cells, washing and mixing with chronically infected H9 cells; type: cell-based, HIV-1; human H9 and C8166 cells; conditions: 100 μg/ml; overnight pretreatment, washed; 6 hour observation
Experimental: In the next experiments, CD4+ C8166 cells were pretreated overnight with either DIDS (100 μg/ml), SITS (100 μg/ml) or drug-free medium. Unabsorbed compounds were removed by repeated washings and chronically infected H9 cells were then added. […] Thus, cell washing prior to mixing with the H9 cells oblated the protective effect observed above (FIG. 1, Panel E) when 500,000 MW dextran sulfate was continually present in the assay.
Pretreatment of CD4+ C8166 cells with DIDS blocks fusion with chronically infected H9 cells. In this experiment, C8166 cells were pretreated overight with various stilbene disulfonic acids or drug-free medium (fusion control). The cells were washed, incubated with chronically infected H9 cells and syncytia were photographed at 6 hours post-mixing. Pretreatment conditions were as follows: […]: 100 μg/ml SITS; FIG. 2B: drug-free medium; and FIG. 2C: 100 μg/ml DIDS.
In pretreatment experiments, CD4^+ C8166 cells were maintained in serum-free medium (RPMI 1640 plus human transferrin 50 μg/ml, bovine insulin 20 μg/ml, bovine serum albumin 2 mg/ml) and were exposed to compound by overnight incubation. Treated cells were washed twice in fresh serum-free medium and then cocultured with chronically infected H9 cells in serum-free medium. Otherwise, cell numbers, assay conditions and scoring of syncytia were as described above.
Protocol: C8166 cells were pretreated for 2.5 hours with either DIDS, SITS or H2 DIDS (at 500 and 250 μg/ml). The cells were then washed three times and mixed with H9 cells chronically infected with HIV-1. Cell fusion was quantified after 4 and 24 hours.

[2] = tested on: HIV-1 strain GB8 in JM cells; experiment: Acute HIV-1 (GB8) infection of JM cells: syncytial counts and p24 antigen; type: cell-based, HIV-1 (human T cell line JM); conditions: for Mean Syncytial Counts: at day 4 p.i.
Excerpt: When evaluated in the human T cell line JM acutely infected with the GB8 virus, DIDS, H2 DIDS and SITS (Table I) suppressed virus-induced multinucleated giant cell formation (syncytia). […] We also examined the antiviral properties of these compounds in a second host-cell/virus system, i.e., the highly CD4+ C8166 cells infected with the Haitian strain of HIV-1, RF.
The cell lines used were the semi-mature human lymphoblastoid leukemia T cell line JM, the human T-lymphoblastoid C8166 cell line, the human cutaneous T cell lymphoma line H9 and, the human T cell transformed line MT-4. Stocks of HIV-1 strains RF and GB8 (kindly provided by Dr. Graham Farrar, Center for Applied Microbiological Research, Porton Dawn, England) were prepared from chronically infected H9 cells and acutely infected JM cells, respectively. Virus stocks consisted of cell-free growth medium (RPMI 1640 plus 10% fetal calf serum) containing freshly shed virus. Virus titres were determined by a standard plaque reduction assay.
Virus stocks (strains RF or GB8) were diluted into growth medium containing various concentrations of DIDS, H2 DIDS or SITS. The required number of cells were then immediately added and the virus allowed to absorb for 2 hours at 37° C. to give a multiplicity of infection (MOI) of 0.001 infectious units/cell. The virus-infected cells were pelleted, washed three times in phosphate buffered saline (PBS), and resuspended in fresh growth medium containing the appropriate concentrations of stilbene disulfonic acids. Cells were then distributed into 24-well culture plates (Falcon) and assayed as described below for virus infection. Alternatively, cells were first infected with HIV-1 (strains RF or GB8) for 2 hours at 37° C. at the above MOI. After extensive washing, cells were replated into fresh growth medium containing various concentrations of stilbene disulfonic acids. In the above experiments, syncytia were scored between 2 and 4 days postinfection (p.i.) in triplicate using an Olympus CK2 inverted microscope. The culture fluids were recovered between 3 and 5 days p.i., clarified by low speed centrifugation (2,000 rpm) for 5 minutes and the level of HIV-1 p24 core antigen in the supernatants was determined by p24 antigen ELISA (Coulter). The concentrations of stilbene disulfonic acids giving 50% inhibition of HIV-1 growth (IC50) were determined from the dose-response curves by linear regression analysis.
Protocol: JM cells were infected with HIV-1 to give a multiplicity of infection of 0.001. Virus adsorption was for 2 hours at room temperature. The cells were washed and distributed into wells containing different concentrations of test compounds and incubated. After 2 days the cells were observed and syncytia were counted. The cell-free supernatant fluids were harvested at 4 and 6 days post infection and assayed for levels of p24 viral core antigen and after 6 days the supernatants were also titrated to determine levels of infectivity.

[3] = tested on: HSV 2; experiment: Plaque reduction assay, HSV 2; type: cell-based
Experimental: Protocol: Plaque reduction assay. Treatment after adsorption during incubation.

[4] = JM cells acutely infected with GB8

Question: Which results are given for `O=S(=O)(O)c1cc(N=C=S)ccc1C=Cc1ccc(N=C=S)cc1S(=O)(=O)O` [DIDS, 4,4'-diisothiocyanatostilbene-2,2'-disulfonic acid]?
Answer: syncytia / fusion after pretreatment [1]: remained syncytia-free; also recorded: blocks fusion; Mean Syncytial Counts 2 Days p.i. ([2]; 3 μg/ml): 114; Mean Syncytial Counts ([2]; 6 μM): 114; Mean Syncytial Counts 2 Days p.i. ([2]; 6 μg/ml): 101; Mean Syncytial Counts ([2]; 12 μM): 101; Mean Syncytial Counts 2 Days p.i. ([2]; 12.5 μg/ml): 31; p24 4 days p.i. ([2]; 12.5 μg/ml): 110000 pg/mL; p24 6 days p.i. ([2]; 12.5 μg/ml): 2.44 × 10^6 pg/m.; Mean Syncytial Counts ([2]; 25 μM): 31; Mean Syncytial Counts 2 Days p.i. ([2]; 25 μg/ml): 0; p24 4 days p.i. ([2]; 25 μg/ml): 4700 pg/mL; p24 6 days p.i. ([2]; 25 μg/ml): 1.21 × 10^6 pg/m.; Mean Syncytial Counts ([2]; 50 μM): 0; Mean Syncytial Counts 2 Days p.i. ([2]; 50 μg/ml): 0; p24 4 days p.i. ([2]; 50 μg/ml): 130 pg/mL; p24 6 days p.i. ([2]; 50 μg/ml): 1.23 × 10^4 pg/m.; Mean Syncytial Counts ([2]; 100 μM): 0; Mean Syncytial Counts 2 Days p.i. ([2]; 100 μg/ml): 0; p24 4 days p.i. ([2]; 100 μg/ml): None detected; p24 6 days p.i. ([2]; 100 μg/ml): 4.87 × 10^2 pg/m.; Mean Syncytial Counts ([2]; 200 μM): 0; activity at 12.5 µg/mL ([2]; Human immunodeficiency virus 1, 96 h, 12.5 μg/ml, read-out: p24 4 days p.i., % Control): > 100%; activity at 25 µg/mL ([2]; Human immunodeficiency virus 1, 96 h, 25 μg/ml, read-out: p24 4 days p.i., % Control): 6.4%; activity at 50 µg/mL ([2]; Human immunodeficiency virus 1, 96 h, 50 μg/ml, read-out: p24 4 days p.i., % Control): 0.18%; activity at 100 µg/mL ([2]; Human immunodeficiency virus 1, 96 h, 100 μg/ml, read-out: p24 4 days p.i., % Control): 0%; activity at 200 µM ([2]; Human immunodeficiency virus 1, 144 h, read-out: P24 Antigen % Virus Control): 0.02%; activity at 12.5 µg/mL ([2]; Human immunodeficiency virus 1, 144 h, 12.5 μg/ml, read-out: p24 6 days p.i., % Control): > 100%; activity at 25 µg/mL ([2]; Human immunodeficiency virus 1, 144 h, 25 µg/mL, GB8 in JM cells, day 6 p.i., read-out: P24 Antigen % Virus Control): 100%; activity at 25 µg/mL ([2]; Human immunodeficiency virus 1, 144 h, 25 μg/ml, read-out: p24 6 days p.i., % Control): 56%; activity at 50 µg/mL ([2]; Human immunodeficiency virus 1, 144 h, 50 µg/mL, GB8 in JM cells, day 6 p.i., read-out: P24 Antigen % Virus Control): 6.4%; activity at 50 µg/mL ([2]; Human immunodeficiency virus 1, 144 h, 50 μg/ml, read-out: p24 6 days p.i., % Control): 0.56%; activity at 100 µg/mL ([2]; Human immunodeficiency virus 1, 144 h, 100 µg/mL, GB8 in JM cells, day 6 p.i., read-out: P24 Antigen % Virus Control): 0.56%; activity at 100 µg/mL ([2]; Human immunodeficiency virus 1, 144 h, 100 μg/ml, read-out: p24 6 days p.i., % Control): 0.02%; inhibition of p24 viral core antigen [2, 4]: dose-dependent inhibition; virus-induced multinucleated giant cell formation (syncytia) [2, 4]: suppressed; order of antiviral potency ([2]; in all three host cell/virus systems (JM/GB8, C8166/RF, MT-4/RF)): DIDS>H2 DIDS>>SITS; Plaque counts ([3]; 0.1 μg/ml, first count): 37; activity at 0.1 µg/mL ([3]; 0.1 μg/ml, read-out: Mean % VC (plaques)): 68%; Plaque counts ([3]; 0.1 μg/ml, second count): 40; Plaque counts ([3]; 1 μg/ml, first count): 31; activity at 1 µg/mL ([3]; 1 μg/ml, read-out: Mean % VC (plaques)): 61%; Plaque counts ([3]; 1 μg/ml, second count): 33; Plaque counts ([3]; 1 μg/ml, third count): 39; Plaque counts ([3]; 10 μg/ml, first count): 25; activity at 10 µg/mL ([3]; 10 μg/ml, read-out: Mean % VC (plaques)): 44%; Plaque counts ([3]; 10 μg/ml, second count): 25; Plaque counts ([3]; 10 μg/ml, third count): 25; Plaque counts ([3]; 100 μg/ml, first count): 0; activity at 100 µg/mL ([3]; 100 μg/ml, read-out: Mean % VC (plaques)): 0%; Plaque counts ([3]; 100 μg/ml, second count): 0; Plaque counts ([3]; 100 μg/ml, third count): 0
